Data as given in US12357619B2, “Noradrenergic and specific serotonergic anxiolytic and antidepressant, method for the production and use thereof” (ALLA CHEM, LLC, priority 2020, dated 2025).
Where two headings read alike, the source gives them in different places.

Experiments:
Adrenergic α1A = target: T1, Adrenergic α1A (Homo sapiens, UniProt P35348); assay: Receptor activities, Ki (Table 1); format: binding
T1 sequence (P35348 1-466): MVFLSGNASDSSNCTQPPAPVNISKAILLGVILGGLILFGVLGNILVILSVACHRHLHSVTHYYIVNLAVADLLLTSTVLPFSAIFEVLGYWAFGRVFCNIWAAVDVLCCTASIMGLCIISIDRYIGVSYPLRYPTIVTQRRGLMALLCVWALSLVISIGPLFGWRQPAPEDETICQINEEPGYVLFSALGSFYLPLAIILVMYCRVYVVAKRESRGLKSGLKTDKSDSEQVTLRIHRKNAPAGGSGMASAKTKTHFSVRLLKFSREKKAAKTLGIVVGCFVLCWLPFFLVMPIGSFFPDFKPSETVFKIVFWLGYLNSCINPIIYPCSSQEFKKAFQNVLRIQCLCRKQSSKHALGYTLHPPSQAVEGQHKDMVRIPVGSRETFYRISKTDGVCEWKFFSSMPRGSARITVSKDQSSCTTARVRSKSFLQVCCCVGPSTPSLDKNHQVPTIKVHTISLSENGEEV

Adrenergic α2A = target: T2, Adrenergic α2A (Homo sapiens, UniProt P08913); assay: Receptor activities, Ki (Table 1); format: binding
T2 sequence (P08913 1-465): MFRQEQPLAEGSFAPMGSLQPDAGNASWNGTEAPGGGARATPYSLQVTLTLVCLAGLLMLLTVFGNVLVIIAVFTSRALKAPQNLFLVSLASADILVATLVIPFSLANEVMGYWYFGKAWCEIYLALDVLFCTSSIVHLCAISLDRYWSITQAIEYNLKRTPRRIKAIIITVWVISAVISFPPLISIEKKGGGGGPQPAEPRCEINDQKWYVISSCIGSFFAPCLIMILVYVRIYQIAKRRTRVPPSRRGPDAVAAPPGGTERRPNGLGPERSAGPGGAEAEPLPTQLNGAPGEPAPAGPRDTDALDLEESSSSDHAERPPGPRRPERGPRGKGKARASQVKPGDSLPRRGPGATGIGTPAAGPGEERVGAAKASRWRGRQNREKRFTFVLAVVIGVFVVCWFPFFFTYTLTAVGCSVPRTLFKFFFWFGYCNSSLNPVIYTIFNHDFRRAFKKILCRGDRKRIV

Adrenergic α2B = target: T3, Adrenergic α2B (Homo sapiens, UniProt P18089); assay: Receptor activities, Ki (Table 1); format: binding
T3 sequence (P18089 1-450): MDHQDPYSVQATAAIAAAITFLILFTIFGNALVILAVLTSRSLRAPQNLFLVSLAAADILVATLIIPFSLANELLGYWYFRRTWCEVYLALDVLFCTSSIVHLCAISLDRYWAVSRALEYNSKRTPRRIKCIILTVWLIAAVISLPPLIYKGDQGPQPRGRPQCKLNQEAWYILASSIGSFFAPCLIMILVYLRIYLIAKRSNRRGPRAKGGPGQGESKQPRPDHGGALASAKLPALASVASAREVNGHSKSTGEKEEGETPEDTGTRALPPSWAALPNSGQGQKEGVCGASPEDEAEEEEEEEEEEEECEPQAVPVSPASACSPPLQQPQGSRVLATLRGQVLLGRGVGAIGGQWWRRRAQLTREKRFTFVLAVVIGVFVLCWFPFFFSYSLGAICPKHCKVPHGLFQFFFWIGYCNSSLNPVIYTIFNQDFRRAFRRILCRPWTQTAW

Serotonin 5-HT7 = Serotonin 5-HT7 (Homo sapiens, UniProt P34969); assay: Receptor activities, Ki (Table 1); format: binding
Serotonin 5-HT7, sequence (P34969 whole entry): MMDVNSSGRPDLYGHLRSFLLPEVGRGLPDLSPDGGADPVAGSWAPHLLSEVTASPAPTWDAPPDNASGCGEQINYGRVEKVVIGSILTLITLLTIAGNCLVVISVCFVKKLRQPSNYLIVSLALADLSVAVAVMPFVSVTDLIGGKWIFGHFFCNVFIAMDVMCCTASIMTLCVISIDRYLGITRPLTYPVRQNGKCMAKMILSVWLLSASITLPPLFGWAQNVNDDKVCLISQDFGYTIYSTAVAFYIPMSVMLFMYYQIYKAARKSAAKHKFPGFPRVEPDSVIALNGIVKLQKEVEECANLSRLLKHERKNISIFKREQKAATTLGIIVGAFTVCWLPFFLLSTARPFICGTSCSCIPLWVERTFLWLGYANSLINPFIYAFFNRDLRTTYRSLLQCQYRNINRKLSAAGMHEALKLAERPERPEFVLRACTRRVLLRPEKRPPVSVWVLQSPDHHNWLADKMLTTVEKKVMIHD

[1] = Pharmacokinetics, single and multiple dosing of capsules in volunteers (Example 11); format: in vivo, human; settings: for half-life / Tmax: human, in vivo, oral
Protocol: (§1) Example 11. Safety study of increasing doses of the oral drug of this invention made as a pharmaceutical composition of this invention in capsules. Clinical safety study of increasing doses of the antipsychotic drug made as a pharmaceutical composition of this invention in capsules for single and multiple dosing. The study covered one cohort of 4 volunteers taking antipsychotic drug once at a dose of 20 mg, and then at the same dose 2 times a day for 4 days. Based on the three-week safety data obtained in the 20-mg cohort taking antipsychotic drug twice a day, the independent safety data monitoring Committee took a decision to involve a second cohort of 4 volunteers, in which the antipsychotic drug under test was taken once at a dose of 20 mg and then 3 times a day for 4 days at the same dose.

volunteers = assay: Safety of increasing doses, single and multiple dosing of capsules in volunteers (Example 11); format: in vivo, human
Protocol: as §1

[2] = 20 mg once, then 20 mg 2 or 3 times a day for 4 days

Cc1ccc2c(c1)c1c(n2CCc2ccccc2)CCN(C)C1.Cl [A•HCl, 2,8-dimethyl-5-(2-phenylethyl)-2,3,4,5-tetrahydro-1H-pyrido[4,3-b]indole hydrochloride]
Ki (Adrenergic α1A): 30.2 nM
Ki (Adrenergic α2A): 1.77 nM
Ki (Adrenergic α2B): 0.41 nM
Ki (Serotonin 5-HT7): 0.153 nM
Accumulation factor (Fc) ([1]; 40-mg cohort): 2.5
Accumulation factor (Fc) ([1]; 60-mg cohort): 2.1
half-life ([1]; 20 mg, single dose, 40-mg cohort): 10.3 ± 5.4 h
Tmax ([1]; 20 mg, single dose, 40-mg cohort, read-out: Tmax, median): 0.75 h
half-life ([1]; 20 mg, single dose, 60-mg cohort): 7.3 ± 2.6 h
Tmax ([1]; 20 mg, single dose, 60-mg cohort, read-out: Tmax, median): 2.3 h
Tmax ([1]; 20 mg, single dose, majority of volunteers, read-out: Tmax, variation): 0.5 to 4 h
Tmax ([1]; 40 mg/day, repeated doses, 40-mg cohort, read-out: Tmax, median): 0.38 h
Tmax ([1]; 60 mg/day, repeated doses, 60-mg cohort, read-out: Tmax, median): 1 h
Time to stabilization of the residual concentration after the start of regular drug administration ([1]; multiple dosing): 1 to 2 days
Tmax, variability range ([1]; repeated doses): 0.3 to 4 h
Increase in T1/2 after repeated administration, on an average ([1]; repeated vs single administration): 1.4 times
Adverse events associated with taking the drug (volunteers; [2]): did not reveal any adverse events (AEs) associated with taking the drug
Safety profile and tolerability (volunteers; [2]): favorable safety profile and good tolerability
Occurrence of AE by daily dose (volunteers; 40 mg and 60 mg daily dose cohorts): AE were observed only in volunteers who received a daily dose of 60 mg
